Consider four molecules from publication PMC5063506, “A Novel Class of Small Molecule Agonists with Preference for Human over Mouse TLR4 Activation” (PLoS ONE, 2016).

Series [1] deals with GP PBMCs. The experiment in a line: Cytokine gene expression in guinea pig PBMCs (QuantiGene Plex). Type of series: cell-based. The following applies: 1 and 0.2 μg/ml, 24 h, ranking among Ugi compounds. The method, then: Splenocytes were isolated from naïve BALB/c mice by dissociating spleens with a GentleMACS (Miltenyi) instrument, then filtration through […] screens. For other species, blood was obtained through venipuncture or cardiac puncture into heparinized tubes, then diluted 1:1 with PBS or HBSS and layered onto Ficoll-Histopaque (GE Healthcare) for blood from healthy human volunteers and cynomolgus macaques, Lympholyte-Mammal (Cedarlane Labs) for New Zealand white rabbits, Sprague-Dawley rats, Hartley guinea pigs, cotton rats, and ferrets, followed by standard density centrifugation techniques. PBMCs layers were recovered and cultured in RPMI-1640 + human AB serum (Life Technologies) + Pen Strep + L-Glutamine (human cells) or RPMI-1640 + 10% FBS (Hyclone) + Pen/Strep + L-Glutamine + 0.1% Beta-Mercapto-ethanol (Sigma) (mouse, cyno, rat, cotton rat, guinea pig, rabbit, ferret cells). Purchase of peripheral blood from cynomolgus macaques was from Valley Biosystems (West Sacramento, CA) and was performed in accordance with Standard Operating Procedures and with the approval of the Valley Biosystems Institutional Animal Care and Use Committee (IACUC). […]
PBMCs (human, cynomolgus macaque, guinea pig, ferret, rabbit, rat, and cotton rat) or splenocytes (mouse) were seeded onto 96-well flat bottom plates at 5 x 10^5 cells/well and stimulated with TLR4 agonists at 1 and 0.2 μg/ml for 24 h at 37°C. […] For human, cyno, mouse, and rat, cell-free SNs were analyzed via human, NHP, mouse, and rat MILLIPLEX kits. For GP, ferret, rabbit, and CR, cells were lysed by Millipore lysing buffer and snap frozen at -70 C until ready for analysis by Affymetrix QuantiGene 2.0 Plex kits. […] Signal was detected using a Bioplex 200 instrument (BioRad). […]
Fig 7 Activation of cytokine gene expression by Ugi compounds in GP PBMCs. […] SNs were analyzed via GP Affymetrix QuantiGene Plex assay. Data are expressed as the means of 3 GPs at the 1 μg/ml dose of TLR4 agonist and are representative of 2 studies. […]

The nature of series [2]: LogD, octanol/water distribution coefficient. The series is classed as physicochemical. The following applies: pH 7.4; octanol/water distribution coefficient at pH7.4. An excerpt: Fig 2 Optimization stages of Ugi products as TLR4 agonists. *Human TLR-4 NFκB SEAP reporter assays; protocol as described in Methods. Data are reported as pEC50, or negative log of the EC50 values. **Clint rh / hm represents intrinsic clearance in presence of rat hepatocytes (μL/min/10^6 cells) and human microsomes (μL/min/mg protein). […] Thus a drug molecule with LogD >4 might be considered to be very lipophilic and therefore more likely to suffer from rapid metabolic turnover, poor solubility and receptor promiscuity; whereas a LogD range of 1–3 is more likely to be associated with optimal physicochemical and drug-like properties. ^††Solubility was measured by dissolution of solid samples in buffer at pH 7.4.

In the case of `Cc1cc(C)cc(N(C(=O)c2cc(-c3ccccc3)n(-c3ccccc3)n2)C(C(=O)NC2CCCC2)c2ccc(CC(=O)O)cc2)c1` (stereo not drawn) [AZ618, 2-(4-(2-(cyclopentylamino)-1-(N-(3,5-dimethylphenyl)-1,5-diphenyl-1H-pyrazole-3-carboxamido)-2-oxoethyl)phenyl)acetic acid], in series [1], the “activity in GP PBMCs (cytokine mRNA)” value was “highest activity”.
`Cc1ccc(N(C(=O)c2cc(-c3ccccc3)n(-c3ccccc3)n2)C(C(=O)NC2CCCC2)c2ccc(CC(=O)O)cc2)cc1Cl` (stereo not drawn) [AZ161]: in series [2], the logD came to 3.2.
The molecule `CC(C)(C)c1ccc(N(C(=O)c2cc(-c3ccccc3)n(-c3ccccc3)n2)C(C(=O)NC2CCCC2)c2ccc(CC(=O)O)cc2)cc1` (stereo not drawn) [AZ902] showed a log distribution coefficient (logD) in series [2] of over 4.5. The “activity in GP PBMCs (cytokine mRNA)” value in series [1] is “lowest activity”.
For `O=C(O)Cc1ccc(C(C(=O)NC2CCCC2)N(C(=O)c2cc(-c3ccccc3)n(-c3ccccc3)n2)c2ccc3c(c2)CCC3)cc1` (stereo not drawn) [AZ617] the same measures were 2.85 and “highest activity”.
